Laboratory results from patent US6410558B1, “Fungicides for the control of take-all disease of plants” (Monsanto Technology LLC, priority 1991, dated 2002).

Columns and labels:
[1] = test system: Gaeumannomyces graminis var. tritici (Ggt); assay: In vitro Assay: mycelial growth of Ggt on minimal media agar plates containing test compound; format: cell-based; details: Gaeumannomyces graminis, dark, 19-20° C., 4 to 5 days, diameter of mycelial growth; for inhibition at 0.1 ppm: 0.1 ppm in minimal media agar, read-out: In vitro (ppm) 0.1, Percent Inhibition; for inhibition at 1 ppm: 1 ppm in minimal media agar, read-out: In vitro (ppm) 1, Percent Inhibition; for inhibition at 10 ppm: 10 ppm in minimal media agar, read-out: In vitro (ppm) 10, Percent Inhibition
In short: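 Compounds added from acetone stock into minimal (Czapek Dox) agar; plates inoculated with three 4-mm Ggt plugs, incubated in dark at 19-20° C for 4 to 5 days. Colony diameter measured; Percent Inhibition = [1-((treated mm −4)/(control mm −4))]×100.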

Ggt = assay: In vivo Assay: control of Ggt on wheat grown in pots of Ggt-infested soil, root disease rating; design: species or system Gaeumannomyces graminis var. tritici; details: Gaeumannomyces graminis, 672 h; 0.5 mg active ingredient per pot; 'Bergen' or 'Anza' wheat in Ggt-infested soil; after four weeks; vs untreated control; read-out: In vivo, percent disease control
In short: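 Wheat ('Bergen' or 'Anza') seeds in soil infested with Ggt-colonised oats (4% v/v) treated at 0.5 mg active ingredient per pot in acetone/water with Tween 20; five pots per treatment. After four weeks, seminal roots rated 0–5; trimmed mean of three replicates converted to percent disease control versus untreated.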

`CC(CCl)NC(=O)c1c(Cl)cccc1[Si](C)(C)C` (stereo not shown) [Example 171, 2-Chloro-N-(2-chloro-1-methylethyl)-6-(trimethylsilyl)benzamide] gave an inhibition at 0.1 ppm [1] of 48%, an inhibition at 1 ppm [1] of 88% and an inhibition at 10 ppm [1] of 97%. It also gave a pest or weed control at 0.5 mg/pot (Ggt) of 87% and a melting point of 150 to 151 °C.
In the case of `CC1(c2cccc(F)c2C(=O)NCCCl)CCC1` [Example 199, N-(2-Chloroethyl)-2-fluoro-6-(1-methylcyclobutyl)benzamide], the melting point is reported as 108 to 110 °C.
In the case of `CCNC(=O)c1c(Cl)cccc1[Si](C)(C)CBr` [Example 210, 2-[(Bromomethyl)dimethylsilyl]-6-chloro-N-ethyl-benzamide], the inhibition at 0.1 ppm [1] is reported as 85%, the inhibition at 1 ppm [1] is reported as 88% and the inhibition at 10 ppm [1] is reported as 94%. The pest or weed control at 0.5 mg/pot (Ggt) was 74%.
Molecule `CCN(C(=O)OC(C)(C)C)C(=O)c1c(Cl)cccc1[Si](C)(C)C` [Example 211, [2-Chloro-6-(trimethylsilyl)benzoyl]ethylcarbamic acid, 1,1-dimethylethyl ester] has an inhibition at 0.1 ppm [1] of under 0%, an inhibition at 1 ppm [1] of 82% and an inhibition at 10 ppm [1] of 90%. It also gave a pest or weed control at 0.5 mg/pot (Ggt) of 96%.
For `CCNC(=O)c1c(Cl)cccc1[Si](C)(C)CC` [Example 212, 2-Chloro-N-ethyl-6-(ethyldimethylsilyl)benzamide], the inhibition at 0.1 ppm [1] was 77%, the inhibition at 1 ppm [1] was 54% and the inhibition at 10 ppm [1] was 90%. The pest or weed control at 0.5 mg/pot (Ggt) was 96%.
With `CCNC(=O)c1cc(Cl)ccc1[Si](C)(C)C` [Example 213, 5-Chloro-N-ethyl-2-(trimethylsilyl)benzamide] the inhibition at 0.1 ppm [1] was 9%, the inhibition at 1 ppm [1] was 82% and the inhibition at 10 ppm [1] was 79%. The pest or weed control at 0.5 mg/pot (Ggt) was 87%.
In the case of `CCNC(=O)c1c(Cl)ccc([N+](=O)[O-])c1[Si](C)(C)C` [Example 215, 6-Chloro-N-ethyl-3-nitro-2-(trimethylsilyl)benzamide], the inhibition at 0.1 ppm [1] is reported as 46%, the inhibition at 1 ppm [1] is reported as 96% and the inhibition at 10 ppm [1] is reported as 100%. The pest or weed control at 0.5 mg/pot (Ggt) was 57%.
`CCNC(=O)c1c([Si](C)(C)C)ccc([N+](=O)[O-])c1Cl` [Example 216, 2-Chloro-N-ethyl-3-nitro-6-(trimethylsilyl)benzamide] gave an inhibition at 0.1 ppm [1] of 25%, an inhibition at 1 ppm [1] of 54% and an inhibition at 10 ppm [1] of 92%. It also gave a pest or weed control at 0.5 mg/pot (Ggt) of 68%.
In the case of `CCNC(=O)c1cc(N)ccc1[Si](C)(C)C` [Example 217, 5-Amino-N-ethyl-2-(trimethylsilyl)benzamide], the inhibition at 0.1 ppm [1] is reported as 16%, the inhibition at 1 ppm [1] is reported as 68% and the inhibition at 10 ppm [1] is reported as 100%. It also gave a pest or weed control at 0.5 mg/pot (Ggt) of 0%.
Work on `CCNC(=O)c1c([Si](C)(C)C)ccc(Cl)c1F` [Example 218, 3-Chloro-N-ethyl-2-fluoro-6-(trimethylsilyl)benzamide] yielded an inhibition at 0.1 ppm [1] of 18%, an inhibition at 1 ppm [1] of 94% and an inhibition at 10 ppm [1] of 100%. It also gave a pest or weed control at 0.5 mg/pot (Ggt) of 99%.
In the case of `CCNC(=O)c1c([Si](C)(C)C)ccc(OC)c1Cl` [Example 219, 2-Chloro-N-ethyl-3-methoxy-6-(trimethylsilyl)benzamide], the inhibition at 0.1 ppm [1] is reported as 50%, the inhibition at 1 ppm [1] is reported as 94% and the inhibition at 10 ppm [1] is reported as 100%. It also gave a pest or weed control at 0.5 mg/pot (Ggt) of 97%.
Work on `CCNC(=O)c1c([Si](C)(C)C)ccc(Br)c1Cl` [Example 220, 3-Bromo-2-chloro-N-ethyl-6-(trimethylsilyl)benzamide] yielded an inhibition at 0.1 ppm [1] of 75%, an inhibition at 1 ppm [1] of 100% and an inhibition at 10 ppm [1] of 100%. It also gave a pest or weed control at 0.5 mg/pot (Ggt) of 97%.
Work on `CCNC(=O)c1c([Si](C)(C)C)ccc(C=O)c1Cl` [Example 223, 2-Chloro-N-ethyl-3-formyl-6-(trimethylsilyl)benzamide] yielded an inhibition at 0.1 ppm [1] of 48%, an inhibition at 1 ppm [1] of 93% and an inhibition at 10 ppm [1] of 96%. The pest or weed control at 0.5 mg/pot (Ggt) was 82%.
`CCNC(=O)c1c([Si](C)(C)C)ccc(C(F)F)c1Cl` [Example 224, 2-Chloro-3-(difluoromethyl)-N-ethyl-6-(trimethylsilyl)benzamide] showed an inhibition at 0.1 ppm [1] of under 0%, an inhibition at 1 ppm [1] of 27% and an inhibition at 10 ppm [1] of 93%. It also gave a pest or weed control at 0.5 mg/pot (Ggt) of 21%.
`CCNC(=O)c1c([Si](C)(C)C)ccc(CO)c1Cl` [Example 227, 2-Chloro-N-ethyl-3-(hydroxymethyl)-6-(trimethylsilyl)benzamide] showed an inhibition at 0.1 ppm [1] of 36%, an inhibition at 1 ppm [1] of 68% and an inhibition at 10 ppm [1] of 100%. For the same molecule, the pest or weed control at 0.5 mg/pot (Ggt) was 34%.
With `CCNC(=O)c1c([Si](C)(C)C)ccc(CF)c1Cl` [Example 228, 2-Chloro-N-ethyl-3-(fluoromethyl)-6-(trimethylsilyl)benzamide] the inhibition at 0.1 ppm [1] was under 0%, the inhibition at 1 ppm [1] was 87% and the inhibition at 10 ppm [1] was 96%. For the same molecule, the pest or weed control at 0.5 mg/pot (Ggt) was 84%.
With `CCNC(=O)c1c(Cl)ccc(Br)c1[Si](C)(C)C` [Example 232, 3-Bromo-6-chloro-N-ethyl-2-(trimethylsilyl)benzamide] the inhibition at 0.1 ppm [1] was 92%, the inhibition at 1 ppm [1] was 97% and the inhibition at 10 ppm [1] was 95%. For the same molecule, the pest or weed control at 0.5 mg/pot (Ggt) was 78%.
Molecule `CCNC(=O)c1sc([Si](C)(C)C)cc1[Si](C)(C)C` [Example 249, N-Ethyl-3,5-bis(trimethylsilyl)-2-thiophenecarboxamide] has an inhibition at 0.1 ppm [1] of 17%, an inhibition at 1 ppm [1] of 48% and an inhibition at 10 ppm [1] of 100%. It also gave a pest or weed control at 0.5 mg/pot (Ggt) of 60%.
Molecule `CCNC(=O)c1sc(Cl)cc1[Si](C)(C)C` [Example 254, 5-Chloro-N-ethyl-3-(trimethylsilyl)-2-thiophenecarboxamide] has an inhibition at 0.1 ppm [1] of 97%, an inhibition at 1 ppm [1] of 97% and an inhibition at 10 ppm [1] of 100%. The pest or weed control at 0.5 mg/pot (Ggt) was 40%.
`CCNC(=O)c1sc(Br)cc1[Si](C)(C)C` [Example 266, 5-Bromo-N-ethyl-3-(trimethylsilyl)-2-thiophenecarboxamide] gave an inhibition at 0.1 ppm [1] of 21%, an inhibition at 1 ppm [1] of 61% and an inhibition at 10 ppm [1] of 100%. For the same molecule, the pest or weed control at 0.5 mg/pot (Ggt) was 4%.
`CCNC(=O)c1cc([Si](C)(C)C)sc1[Si](C)(C)C` [Example 269, N-Ethyl-2,5-bis(trimethylsilyl)-3-thiophenecarboxamide] showed an inhibition at 0.1 ppm [1] of under 0%, an inhibition at 1 ppm [1] of 91% and an inhibition at 10 ppm [1] of 100%. The pest or weed control at 0.5 mg/pot (Ggt) was 4%.
Work on `CCNC(=O)c1c([Si](C)(C)C)sc2c1CCCC2` [Example 270, N-Ethyl-2-(trimethylsilyl)-4,5,6,7-tetrahydrobenzo[B]thiophene-3-carboxamide] yielded an inhibition at 0.1 ppm [1] of 96%, an inhibition at 1 ppm [1] of 100% and an inhibition at 10 ppm [1] of 100%. For the same molecule, the pest or weed control at 0.5 mg/pot (Ggt) was 87%.
`CCNC(=O)c1c([Si](C)(C)C)sc(C)c1C` [Example 271, 4,5-Dimethyl-N-ethyl-2-(trimethylsilyl)-3-thiophenecarboxamide] gave an inhibition at 0.1 ppm [1] of 95%, an inhibition at 1 ppm [1] of 100% and an inhibition at 10 ppm [1] of 100%. It also gave a pest or weed control at 0.5 mg/pot (Ggt) of 97%.
For `CCN(SC)C(=O)c1sccc1[Si](C)(C)C` [Example 272, N-Ethyl-N-(methylthio)-3-(trimethylsilyl)-2-thiophenecarboxamide], the inhibition at 0.1 ppm [1] was 14%, the inhibition at 1 ppm [1] was 23% and the inhibition at 10 ppm [1] was 100%. For the same molecule, the pest or weed control at 0.5 mg/pot (Ggt) was 0%.
